As a reminder, the melting point is the temperature, or range, at which the solid turns liquid.

Experimental findings from patent US20040092515A1, “Diaminoquinazoline esters for use as dihydrofolate reductase inhibitors” (priority 2001, published 2004) are described below.

`COc1ccc(OC)c(C(=O)OCc2ccc3nc(N)nc(N)c3c2)c1` yielded a melting point of 195 to 197 °C.
Then `COc1cc(C(=O)OCc2ccc3nc(N)nc(N)c3c2)cc(OC)c1OC`, with 223 to 227 °C.
